In ChEMBL document CHEMBL4229359, “Simple 2(5H)-furanone derivatives with selective cytotoxicity towards non-small cell lung cancer cell line A549 - Synthesis, structure-activity relationship and biological evaluation” (Eur J Med Chem, 2018):
Active and inactive are the calls of the source. The rule behind the calls is not given here.

Key:
Hep 3B2 = test: Cytotoxicity against human Hep3B cells assessed as reduction in cell viability after 72 hrs by MTT assay; type: functional, cell-based
A549 [1] = test: Cell cycle arrest in human A549 cells assessed as accumulation at G2/M-phase at 20 uM after 72 hrs by propidium iodide staining based flow cytometry (reference value: 6.7%); type: functional
A549 [2] = test: Anticlonogenic activity against human A549 cells at 10 uM after 72 hrs by crystal violet staining based microscopic method relative to control; type: functional
A549 [3] = test: Anticlonogenic activity against human A549 cells assessed as colony formation at 5 uM after 72 hrs by crystal violet staining based microscopic method relative to control; type: functional
HCT-116 [4] = test: Cytotoxicity against human HCT116 cells assessed as reduction in cell viability after 72 hrs by MTT assay; type: functional, cell-based; settings: HCT-116, 72 h
LoVo = test: Cytotoxicity against human LoVo cells assessed as reduction in cell viability after 72 hrs by MTT assay; type: functional, cell-based
A549 [5] = test: Effect on Bad protein expression in human A549 cells at 20 uM after 72 hrs by densitometric analysis; type: functional, cell-based
[6] = Selectivity index, ratio of IC50 for human BEAS2B cells to IC50 for human A549 cells; type: toxicity
A549 [7] = test: Induction of apoptosis in human A549 cells at 20 uM after 72 hrs by Annexin V-FITC/propidium iodide staining based flow cytometry relative to control; type: functional
A549 [8] = test: Synergistic cytotoxicity against human A549 cells assessed as reduction in cell viability at 10 uM after 72 hrs in presence of 5 to 20 uM erlotinib by MTT assay; type: functional, cell-based
A549 [9] = test: Synergistic anticlonogenic activity against human A549 cells at 10 uM after 72 hrs in presence of 10 uM erlotinib by crystal violet staining based microscopic method; type: functional
HCT-116 [10] = test: Cytotoxicity against p53-/- human HCT116 cells assessed as reduction in cell viability after 72 hrs by MTT assay; type: functional, cell-based; settings: HCT-116, 72 h
PC-3 = test: Cytotoxicity against human PC3 cells assessed as reduction in cell viability after 72 hrs by MTT assay; type: functional, cell-based; settings: PC-3, 72 h
A549 [11] = test: Cell cycle arrest in human A549 cells assessed as accumulation at S-phase at 20 uM after 72 hrs by propidium iodide staining based flow cytometry (reference value: 31.9%); type: functional
A549 [12] = test: Effect on Bax protein expression in human A549 cells at 20 uM after 72 hrs by densitometric analysis; type: functional, cell-based
A549 [13] = test: Induction of apoptosis in human A549 cells assessed as late apoptotic cells at 20 uM after 72 hrs by Annexin V-FITC/propidium iodide staining based flow cytometry (reference value: 0.5%); type: functional
A549 [14] = test: Induction of apoptosis in human A549 cells assessed as necrotic cells at 20 uM after 72 hrs by Annexin V-FITC/propidium iodide staining based flow cytometry (reference value: 0.6%); type: functional
U2OS = test: Cytotoxicity against human U2OS cells assessed as reduction in cell viability after 72 hrs by MTT assay; type: functional, cell-based
A549 [15] = test: Synergistic cell cycle arrest in human A549 cells assessed as accumulation at G1-phase at 10 uM after 72 hrs in presence of 10 uM erlotinib by propidium iodide staining based flow cytometry (reference value: 76%); type: functional
A549 [16] = test: Induction of apoptosis in human A549 cells assessed as live cells at 20 uM after 72 hrs by Annexin V-FITC/propidium iodide staining based flow cytometry (reference value: 98.5%); type: functional
A549 [17] = test: Cell cycle arrest in human A549 cells assessed as accumulation at S-phase at 10 uM after 24 hrs by propidium iodide staining based flow cytometry (reference value: 34.1%); type: functional
A549 [18] = test: Effect on Pro-caspase-3 protein expression in human A549 cells at 20 uM after 72 hrs by densitometric analysis; type: functional, cell-based
A549 [19] = test: Induction of apoptosis in human A549 cells assessed as early apoptotic cells at 20 uM after 72 hrs by Annexin V-FITC/propidium iodide staining based flow cytometry (reference value: 0.4%); type: functional
A549 [20] = test: Induction of apoptosis in human A549 cells assessed as caspase-3 cleavage at 20 uM after 72 hrs by Western blot analysis; type: functional, cell-based
BEAS-2B = test: Cytotoxicity against human BEAS2B cells assessed as reduction in cell viability after 72 hrs by MTT assay; type: cell-based
MCF7 = test: Cytotoxicity against human MCF7 cells assessed as reduction in cell viability after 72 hrs by MTT assay; type: functional, cell-based; settings: MCF7, 72 h
A549 [21] = test: Anticlonogenic activity against human A549 cells assessed as colony formation at 10 uM after 72 hrs by crystal violet staining based microscopic method relative to control; type: functional
A549 [22] = test: Cell cycle arrest in human A549 cells assessed as accumulation at G2/M-phase at 10 uM after 72 hrs by propidium iodide staining based flow cytometry (reference value: 6.3 to 7.2%); type: functional
A549 [23] = test: Cell cycle arrest in human A549 cells assessed as accumulation at G1-phase at 10 uM after 24 hrs by propidium iodide staining based flow cytometry (reference value: 59.4%); type: functional
A549 [24] = test: Cell cycle arrest in human A549 cells assessed as accumulation at S-phase at 10 uM after 72 hrs by propidium iodide staining based flow cytometry (reference value: 16.8 to 18.5%); type: functional
A549 [25] = test: Effect on Bcl2 protein expression in human A549 cells at 20 uM after 72 hrs by densitometric analysis; type: functional, cell-based
A549 [26] = test: Effect on Bcl-x protein expression in human A549 cells at 20 uM after 72 hrs by densitometric analysis; type: functional, cell-based
DU-145 = test: Cytotoxicity against human DU145 cells assessed as reduction in cell viability after 72 hrs by MTT assay; type: functional, cell-based; settings: DU-145, 72 h
A549 [27] = test: Synergistic cell cycle arrest in human A549 cells assessed as accumulation at G2/M-phase at 10 uM after 72 hrs in presence of 10 uM erlotinib by propidium iodide staining based flow cytometry (reference value: 7.2%); type: functional
A549 [28] = test: Synergistic cell cycle arrest in human A549 cells assessed as accumulation at S-phase at 10 uM after 72 hrs in presence of 10 uM erlotinib by propidium iodide staining based flow cytometry (reference value: 16.8%); type: functional
A549 [29] = test: Cell cycle arrest in human A549 cells assessed as accumulation at G1-phase at 20 uM after 72 hrs by propidium iodide staining based flow cytometry (reference value: 61.5%); type: functional
A549 [30] = test: Cytotoxicity against human A549 cells assessed as reduction in cell viability after 72 hrs by MTT assay; type: functional, cell-based; settings: A549, 72 h
A549 [31] = test: Downregulation of Cyclin-B1 protein expression in human A549 cells at 10 uM after 72 hrs by Western blot analysis; type: functional, cell-based
HepG2 = test: Cytotoxicity against human HepG2 cells assessed as reduction in cell viability after 72 hrs by MTT assay; type: functional, cell-based; settings: HepG2, 72 h
A549 [32] = test: Effect on cleaved caspase-3 protein expression in human A549 cells at 20 uM after 72 hrs by densitometric analysis; type: functional, cell-based
A549 [33] = test: Induction of mitosis in human A549 cells at 10 uM after 24 hrs by DAPI staining based fluorescence microscopic method; type: functional, cell-based
A549 [34] = test: Cell cycle arrest in human A549 cells assessed as accumulation at G2/M-phase at 10 uM after 24 hrs by propidium iodide staining based flow cytometry (reference value: 6.5%); type: functional
HT-29 = test: Cytotoxicity against human HT-29 cells assessed as reduction in cell viability after 72 hrs by MTT assay; type: functional, cell-based; settings: HT-29, 72 h
A549 [35] = test: Cell cycle arrest in human A549 cells assessed as accumulation at G1-phase at 10 uM after 72 hrs by propidium iodide staining based flow cytometry (reference value: 75.2 to 76%); type: functional
SJSA-1 = test: Cytotoxicity against human SJSA1 cells assessed as reduction in cell viability after 72 hrs by MTT assay; type: functional, cell-based; settings: SJSA-1, 72 h

## CC(C)OC1OC(=O)C(Cl)=C1Cl (stereo not given)
Hep 3B2
  IC50: 19.8 µM
A549 [1]
  Activity: 4.7%
A549 [2]
  Activity: 86%
A549 [3]
  Activity: 40%
HCT-116 [4]
  IC50: 7.2 µM
LoVo
  IC50: 2.8 µM
A549 [5]
  Activity: inactive
[6]
  log(RatioIC50): 0.61
A549 [7]
  fold change (FC): 36
A549 [8]
  Activity: inactive
A549 [9]
  Activity: 89%
HCT-116 [10]
  IC50: 6.8 µM
PC-3
  IC50: 4.8 µM
A549 [11]
  Activity: 47.3%
A549 [12]
  Activity: inactive
A549 [13]
  Activity: 25.7%
A549 [14]
  Activity: 3.9%
U2OS
  IC50: 21.1 µM
A549 [15]
  Activity: 51.4%
A549 [16]
  Activity: 63.9%
A549 [17]
  Activity: 36.6%
A549 [18]
  Activity: inactive
A549 [19]
  Activity: 6.5%
A549 [20]
  Activity: inactive
BEAS-2B
  IC50: 27.5 µM
MCF7
  IC50: 12.4 µM
A549 [21]
  Activity: 15%
A549 [22]
  Activity: 12.5 - 13.9%
A549 [23]
  Activity: 40%
A549 [24]
  Activity: 19.3 - 26.2%
A549 [25]
  Activity: inactive
A549 [26]
  Activity: inactive
DU-145
  IC50: 25.4 µM
A549 [27]
  Activity: 16.6%
A549 [28]
  Activity: 31.9%
A549 [29]
  Activity: 48%
A549 [30]
  IC50: 6.7 µM
A549 [31]
  Activity: Active
HepG2
  IC50: 16.8 µM
A549 [32]
  Activity: inactive
A549 [33]
  Activity: inactive
A549 [34]
  Activity: 23.4%
HT-29
  IC50: 7.2 µM
A549 [35]
  Activity: 59.9 - 68.2%
SJSA-1
  IC50: 7.7 µM
